# Measured values as given in patent EP0663826B1, “AMINO ACIDS CONTAINING PARENTERAL FORMULATIONS FOR THE TREATMENT OF HYPOTENSION AND RELATED PATHOLOGIES” (BOARD OF REGENTS THE UNIVERSITY OF TEXAS SYSTEM, priority 1991, dated 1993).
# Test system: endotoxin-induced shock in dogs
# Assay: Endotoxin-induced hypotension in dogs (with nitroglycerin and control dogs)
# Type: in vivo
# Description: Animals: Studies were carried out on 12 conditioned mongrel dogs (9 males and 3 females) weighing 22-32 kg (avg=25.3 kg). Animal care was in accordance with the recommendations of the American Association for Accreditation of Laboratory Animal Care, and met all standards prescribed by the Guide for the Care and Use of Laboratory Animals (Guide for the Care and Use of Laboratory Animals (1978) Dept. of Health, Education and Welfare, Washington, D.C. (Publ. No. 78-23). Animal protocols were approved by The University of Texas Animal Welfare committee. The dogs were fasted overnight prior to the day of experimentation. They were anesthetized with sodium pentobarbital (25 mg/kg i.v.). Dogs were then endotracheally intubated and ventilated with a piston-driven respirator (Harvard instruments) using room air at a tidal volume of 15 ml/kg and at a rate of 12 to 14 breaths per minute, adjusted to achieve a normal arterial pH and pCO2 (Instrumentation Laboratories lL1302 pH/Blood Gas Analyzer). Catheters were placed percutaneously into the femoral and pulmonary arteries; In the latter, a flow-directed thermal-dilation catheter was used (Abbott Critical Care Systems).
# Physiologic measurements: Mean SAP and heart rate were continuously monitored (Parametron 7048 Monitoring System, Roche) and stored on a magnetic disk using an analog-to-digital converter (Scientific Solutions, Inc.). Cardiac output (CO) was determined as the mean of six measurements by thermal-dilution. Systemic vascular resistance was calculated as (SAP X80)/CO and expressed as dynes-sec/cm^5 (kg/s·cm^4).
# Protocol: After the blood pressure and heart rate stabilized, endotoxin (40 µg/kg, in 10 ml of phosphate-buffered saline (PBS), pH 7.4) was infused i.v. over 2 minutes. This dose of endotoxin typically induces severe and often lethal cardiovascular collapse in the dog. Blood pressure was monitored, and when either SAP fell below 60 mm Hg or a stable nadir in systemic arterial pressure (SAP) was maintained for 10 minutes, L-NMA was administered (20 mg/kg in 5 ml of PBS i.v. over 1 min.). In most experiments, L-arginine (400 mg/kg in 20 ml PBS) was administered ten minutes later by i.v. infusion over 2 minutes. In control experiments, dogs without prior exposure to endotoxin received L-NMA alone. To simulate the hypotension observed in dogs receiving endotoxin, one group of dogs received a continuous i.v. infusion of nitroglycerin (2 mg/ml) at a rate adjusted to maintain the SAP at 60-70 mm Hg. Nitroglycerin-treated dogs then received L-NMA (20 mg/kg) and 20 minutes later L-arginine was administered ([…]).
# Statistics: Statistical significance was evaluated using Student's test and either a one-tailed or two-tailed analysis as appropriate for comparisons.
smiles,measurement,setting,value
N=C(N)NCCC[C@H](N)C(=O)O [L-arginine],ΔSAP after L-arginine,"Figure 6 dog, endotoxin and 2 doses L-NMA",-77 mm Hg
same,Cardiac Output,"Study 1: Endotoxin-treated dogs (n=4), means ± S.E., same sequence, baseline 2.99 ± 0.32",2.99 ± 0.32 L/min
same,Heart Rate,"Study 1: Endotoxin-treated dogs (n=4), means ± S.E., same sequence, baseline 119.5 ± 6.0",119.5 ± 6.0 beats/min
same,Systemic Vascular Resistance,"Study 1: Endotoxin-treated dogs (n=4), means ± S.E., same sequence, baseline 3565 ± 454",3565 ± 454 dynes-sec/cm^5
same,Systemic Arterial Pressure,"Study 1: Endotoxin-treated dogs (n=4), means ± S.E., sequence endotoxin 40 µg/kg, L-NMA 20 mg/kg, 10 min later L-arginine 400 mg/kg (measured 2 min later), baseline 128.3 ± 9.4",128.3 ± 9.4 mmHg
same,Systemic Vascular Resistance,"Study 1: Endotoxin-treated dogs (n=4), means ± S.E., value in brackets",3.565 ± 0.454 Kg/s·cm^4
same,Cardiac Output,"Study 2: Nitroglycerin-treated dogs (n=3), means ± S.E., baseline 3.14 ± 0.21",5.15 ± 1.08 L/min
same,Heart Rate,"Study 2: Nitroglycerin-treated dogs (n=3), means ± S.E., baseline 143.7 ± 12.1",148.7 ± 19.9 beats/min
same,Systemic Vascular Resistance,"Study 2: Nitroglycerin-treated dogs (n=3), means ± S.E., baseline 3294 ± 74",1088 ± 491 dynes-sec/cm^5
same,Systemic Arterial Pressure,"Study 2: Nitroglycerin-treated dogs (n=3), means ± S.E., continuous nitroglycerin (2 mg/ml) titrated to SAP 65 mm Hg, then L-NMA 20 mg/kg, then L-arginine, baseline 129.3 ± 10.2",57.0 ± 13.0 mmHg
same,Systemic Vascular Resistance,"Study 2: Nitroglycerin-treated dogs (n=3), value in brackets",1.088 ± 0.491 Kg/s·cm^4
same,effect on the pressor effect of L-NMA,"control dogs, L-arginine 400 mg/kg",fully reversed
